Here are results for four compounds from US8592484B2, “Cosmetic composition containing calcium citrate and N-acylated aminoalcohol derivative to prevent dry skin and signs of cutaneous ageing” (Cognis IP Management GmbH, priority 2009, dated 2013).

Structures are written as SMILES. “And” between values parts separate entries of the source, which are not always exact repeats. Equal entries are not always repeated. Marks after values point to notes of the source that are not given here.

Data set [1] relates to human keratinocytes. As to the kind of experiment: Keratinocyte differentiation: involucrin by ELISA in primary culture of human keratinocytes. The format is cell-based. The following applies: for Involucrin (in % +/− SEM): 1 day incubation; for effect on the synthesis of the keratinocyte differentiation marker involucrin (in words): at the tested concentrations. The procedure:
The purpose was to evaluate the potential of the products to stimulate the differentiation of human keratinocytes into corneocytes and therefore the formation of an optimal skin barrier. The products were tested on primary culture of human keratinocytes by measuring the quantity of synthesized involucrin through an ELISA method. Involucrin is a rod shaped protein of 68 kD released by keratinocytes of early spinous layers up to granular layer of human epidermis.
(§1) Human keratinocytes were seeded in growth medium (standard medium MCDB153 completed by Fetal Calf Serum at 2%). After 3-4 days of incubation at 37° C., CO2=5%, the growth medium was exchanged by standard medium MCDB153 without FCS (untreated control), and with a range of concentrations of products to be tested. After 1 day of incubation at 37° C., CO2=5%, the lack of cytotoxicity of the different product and doses tested was recorded using MTT test, and the level of involucrin was measured by an ELISA method.
The results are expressed in % versus control and presented as a mean+/−SEM (standard error of mean) of 2 or 3 assays (different donors of keratinocytes) in duplicate or triplicate.
A general note: In an ELISA, binding on a coated surface is turned into a signal by an enzyme label.

In data set [2] the test system is human keratinocytes. The data set can be described thus: MTT test, viability of human keratinocytes. The conditions noted are these: at the concentrations tested for involucrin. The format is cell-based. The procedure:
as §1

A further data set deals with ceramidase. As to the kind of experiment: Ceramidase inhibition, enzymatic extract of PMA-activated HL60 cells, [14C]-C16 ceramide substrate. Type of data set: biochemical. The conditions noted are these: 1 hour at 37° C., mean of triplicate. The procedure: HL60 cells activated with Phorbol 12-myristate 13-acetate (PMA) at 5 nM were cultured in 175 cm^2 flasks. […] The supernatant obtained after centrifugation constituted the enzymatic extract.
The substrate [^14C]—C16 ceramide (N-palmitoyl-D-Sphingosine) was prepared as follows:
Evaporation of the organic phase and dissolution in distilled water. […] After evaporation and addition of Triton and cholate, the purified substrate was solubilised in distilled water.
The reaction mixture was incubated at 37° C. during 1 hour. The reaction mixture consisted of 5 μl MgCl2 (50 mM), 25 μl enzymatic extract or buffer; 7.5 μl substrate and 12.5 μl product to be tested. The products to be tested were prepared 4× concentrated in buffer at the tested pH and contained 1% of ethanol in final.
The quantification of enzymatic degradation of substrate was realized by measuring of radioactivity in heptane phase. […] The mixture was vortexed and centrifuged at 12 000 g 5 minutes. […] Results are expressed as the % of control.

With `[Ca+2].[Cl-].[Cl-]` [CaCl2, Calcium chloride, reference compound], the “Involucrin (in % +/− SEM)” value is given as 21.9 +/− 5.3 ** % with human keratinocytes [1] (CaCl2 dose 0.1 mM (Ca2+: 0.1 mM)), 3.4 +/− 4.6^ % in the data set with human keratinocytes [1] (dose 0.013 mM (Ca2+: 0.013 mM)), −1.4 +/− 4.6 ^ % in the data set with human keratinocytes [1] (dose 0.026 mM (Ca2+: 0.026 mM)) and 84.4 +/− 1.9 *** % with human keratinocytes [1] (dose 0.3 mM (Ca2+ 0.3 mM)). The “effect on the synthesis of the keratinocyte differentiation marker involucrin (in words)” value in the data set on human keratinocytes [1] is “significantly enhance”. In addition, in the data set with human keratinocytes [2], the “viability (MTT test) of the human keratinocytes” value was “not significantly changed”.
`CCCCCCCC/C=C\CCCCCCCCNCCO` [N-Oleyl-ethanolamine, reference compound]: the “Ceramidase activity in %/control” value in the data set with ceramidase (dose 5 μM) is 98%; in the data set with ceramidase (dose 50 μM) it was 94%; with ceramidase (dose 500 μM) it was 79%.
Taken in the same sequence, the figures for `CCCCCCCC/C=C\CCCCCCCCNCC(O)CO` (stereo not shown) [N-oleyl-(3 amino-1,2-propanediol)] were 81%, 78% and 71%.
Consider `O.O.O.O.O=C([O-])CC(O)(CC(=O)[O-])C(=O)[O-].O=C([O-])CC(O)(CC(=O)[O-])C(=O)[O-].[Ca+2].[Ca+2].[Ca+2]` [Tricalcium dicitrate tetrahydrate, Tricalcium citrate tetrahydrate], for which the “effect on keratinocytes differentiation compared with Calcium chloride” value in the data set on human keratinocytes [1] (at equimolar doses of Ca2+, p<0.001 for Ca2+ 0.026 and 0.1 mM) is “more potent”. The “effect on the synthesis of the keratinocyte differentiation marker involucrin (in words)” value in the data set with human keratinocytes [1] was “significantly enhance”. Further, the “Involucrin (in % +/− SEM)” value was 0.5 +/− 2.6^ % and 0.5 +/− 2.6% with human keratinocytes [1] (dose 0.0044 mM, 0.00025 % w/v (Ca2+: 0.013 mM)); 31.6 +/− 2.9 *** % in the data set on human keratinocytes [1] (dose 0.0088 mM, 0.00050 % w/v (Ca2+: 0.026 mM)); 73.4 +/− 3.7 *** % in the data set on human keratinocytes [1] (dose 0.033 mM (Ca2+: 0.1 mM)); 101.7 +/− 7.2 *** % in the data set with human keratinocytes [1] (tricalcium dicitrate dose 0.1 mM (Ca2+ 0.3 mM)). Further, the “viability (MTT test) of the human keratinocytes” value in the data set with human keratinocytes [2] is “not significantly changed”.
